Data: US6517853B1, “Process for preparing a crystal suspension” (Syngenta Limited, priority 1999, dated 2003)
One block for each molecule: values may come before it.

Tests used:
[1] = Optical microscope image analysis of droplet / crystal size in aqueous emulsion or dispersion; format: physicochemical; details: for crystal size immediately after sonication: all four samples (6 and 2 lhr^−1); for droplet size of hot emulsion: before cooling
Text: (§1) A small sample of the cooled sonicated emulsion was transferred using a capillary tube to a microscope slide and was protected with a glass cover slip. The slide was viewed using transmitted light or cross-polarised light (Zeiss microscope) and an image recorded on a calibrated micrograph. The micrograph provides information as to the size (μm), shape and degree of crystallinity of the droplets or crystals.

[2] = Storage of crystalline dispersion, Ostwald ripening (crystal growth) under optical microscope; format: physicochemical; details: 1% w/w sonicated dispersion, after one week
Text: as §1
The number of spheres/particles in the final dispersion was similar to the number of droplets in the original hot emulsion which indicated nucleation had occurred preferentially in the droplets.

[3] = ΔH/RT value (heat of fusion by differential scanning calorimetry divided by R and melting point in K); format: physicochemical
Method: The value ΔH/RT is a well understood expression which means the enthalpy (heat) of fusion of a compound (ΔH in kJmol^−1) at the normal melting point of the compound divided by the molar gas constant (R, where R is 8.31451 Jmol^−1K^−1) and the melting point of the compound measured on the absolute or Kelvin scale (in °K). Thus, for example, the ΔH/RT value of octadecane, which has a melting point of 28.2° C. and a heat of fusion of 61.39 kJmol^−1 (see the CRC Handbook of Chemistry and Physics, [1996-1997], 77th Edition. 6-138) is calculated as follows: […]
The heat of fusion of a compound (ΔH) may be measured by differential scanning calorimetry. A suitable method is described by McNaughton, J. L. and Mortimer, C. T. in IRS: Physical Chemistry Series 2, Butterworth, London 1975, Vol 10; subsequently reprinted by Perkin-Elmer Corpn. Norwalk, Conn., USA.

[4] = CRC Handbook of Chemistry and Physics, 77th Edition; cited from earlier work
[5] = 1% w/w aqueous dispersion, cooled to 20° C., continuous sonication 500 w
[6] = 1% w/w in aqueous Mowiol 18-88, emulsified five minutes by high shear mixer
[7] = enthalpy of fusion at normal melting point / (R × melting point in K)
[8] = 1% w/w aqueous dispersion, sonicated, higher flow (6 lhr^−1)

Molecule: CCCCNC(=O)OCC#CI [IPBC, 3-iodo-2-propynyl butyl carbamate]
crystal size immediately after sonication [1, 5]: < 10 μm | droplet size of hot emulsion [1, 6]: ≤ 10 μm | Ostwald ripening (crystal growth) of sonicated dispersion [2]: no sign of “Ostwäld” ripening | ΔH/RT [3, 7]: 9.25

Molecule: α-methyl-4-(2-methylpropyl)benzene acetic acid [ibuprofen]
crystal size immediately after sonication [1, 5]: < 10 μm | droplet size of hot emulsion [1, 6]: ≤ 10 μm | crystal size (twinned crystals) without sonication ([1]; 2% aqueous dispersion, cooled without sonication, equilibrated for 18 hrs): 100-200 μm | crystal size (crystalline spheres) immediately after sonication ([1]; 20% w/w aqueous dispersion, cooled to 20° C., continuous sonication 500 w, all four samples): < 10 μm | droplet size of hot emulsion ([1]; 20% w/w in aqueous Mowiol 18-88, emulsified five minutes by high shear mixer): ≤ 10 μm | ΔH/RT [3, 7]: 9.33

size of plates after sonication [1, 8]: 30 μm | size of small needles after sonication [1, 8]: 2 μm | ΔH/RT [3, 7]: 1.15
Molecule: C=C1C2CC[C@@H](C2)C1(C)C [camphene, (1S)-2,2-dimethyl-3-methylenebicyclo[2.2.1]heptane]

ΔH/RT ([3]; calculated from CRC Handbook melting point 28.2° C. and heat of fusion): 24.5
Molecule: CCCCCCCCCCCCCCCCCC [octadecane]
heat of fusion [4]: 61.39 kJmol^−1
